Experimental findings from PubChem BioAssay AID743267 (Broad Institute, 2014) are described below.

In general, AC50 refers to the concentration at which the activity in the assay is half-maximal. Higher therefore signals weaker potency.

The assay deals with human bronchial epithelial cells, CFTR corrector, plate reader. In words: CFTR ΔF508 corrector activity in bronchial cells, dose response, human bronchial epithelial cells, plate reader, cherry-pick, two tests (AID 743267).
The mark [1] stands for this setting: measured here: test 2 replicate run.
The mark [2] stands for this setting: measured here: test 1 replicate run.

Each structure is given as a SMILES string.

With `Cc1ccc(C)c(CSc2nc3[nH]ncc3c(=O)[nH]2)c1`, the AC50 under setting [1] turned out to be 2.57 µM.

Regarding `C/C(=N\NC(=O)c1cc(-c2cccs2)nc2ccccc12)c1ccccn1`, under setting [1], the AC50 was 2.45 µM.

Regarding `COc1ccc(NC(=O)c2cc(S(=O)(=O)N3CCOCC3)ccc2C)cc1S(=O)(=O)N1CCOCC1`, the AC50 under setting [1] was over 50 µM.

Consider `COC(=O)CSC1=C(C#N)C(c2ccc(C)o2)CC(=O)N1` (stereo not drawn), for which the AC50 under setting [1] amounted to 8.06 µM.

Consider `COc1cc(-c2noc(C)c2C#Cc2ccccn2)cc(OC)c1OC`, for which, under setting [1], the AC50 amounted to 0.747 µM.

With `COc1cccc(C2=CC(c3ccccc3)n3nnnc3N2)c1` (stereo not drawn), under setting [1], the AC50 came to 3.85 µM.

As to `Cn1c(=O)c(NC2CCCCC2)c2c3c(cccc31)C(=O)c1ccccc1-2`, the AC50 under setting [1] was 8.48 µM.

In the case of `O=C(NC(=S)Nc1ccc(-c2ccccc2)cc1)c1ccccc1`, under setting [1], the AC50 was over 50 µM.

For the compound `Cc1ccc2[nH]c(C(=O)N/N=C/c3ccccc3O)c(C)c2c1`, the AC50 under setting [1] came out at 1.31 µM.

On to `COC(=O)C1=CN(c2ccc(OC)cc2OC)C(N)=C(C#N)C1c1ccccc1F` (stereo not drawn), for which the AC50 under setting [1] amounted to 1.23 µM.

With `Cc1cccc(N2CCN(Cc3cn(C)nc3-c3ccccc3F)CC2)n1`, the AC50 under setting [1] was 2.43 µM. Against the preceding compound, the AC50 is about 2-fold higher.

On to `COc1ccc(-c2ccc3oc(-c4ccc(OC)cc4)c(C#CCO)c3c2)cc1`, for which the AC50 under setting [1] was over 50 µM.

As to `CCOC(=O)c1c(C)[nH]c(C(=O)N/N=C/c2ccc(OC)c(OC)c2)c1C`, the AC50 under setting [1] was 2.93 µM. That is a single-digit micromolar value.

Compound `COc1cc(OC)c2c(-c3cccc(-c4ccc(OC)c(OC)c4)c3)cc(=O)oc2c1` yielded an AC50 under setting [1] of 0.594 µM.

The compound `CC1=Nc2cc(C(=O)NCC3CCCO3)ccc2Sc2ccc(C)cc21` (stereo not drawn) had an AC50 under setting [1] of 2.57 µM.

On to `O=C(O)c1ccccc1-c1c2cc(I)c(=O)c(I)c-2oc2c(I)c(O)c(I)cc12`, for which, under setting [1], the concentration at half-maximal activity (AC50) turned out to be 16.7 µM.

Compound `COc1ccccc1C1CC(=O)Nc2cc3c(cc21)OCCO3` (stereo not drawn) returned an AC50 under setting [1] of 1.96 µM.

Compound `COc1cc2c(cc1OC)C(c1cccs1)N(C(=O)c1cccnc1)CC2` (stereo not drawn) returned an AC50 under setting [1] of 4.9 µM.

Under setting [1], `CCOc1ccc(C(=O)N[C@H](C(=O)Nc2cccc(S(=O)(=O)N3CCCCC3)c2)C(C)C)cc1` yielded an AC50 of 46.3 µM.

Under setting [1], `COc1ccc(NC(=O)c2nc(C)c(C3(C)CC(c4ccccc4)=NO3)s2)cc1` (stereo not drawn) returned an AC50 of 3.49 µM.

Compound `COC(=O)c1ccc(S(=O)(=O)N2CCc3ccccc32)cc1` had an AC50 under setting [1] of 19.1 µM.

Take `COc1ccccc1N=C1SC(C(=O)Nc2cccc(Cl)c2Cl)C(N)=C1C(N)=O` (stereo not drawn): the AC50 under setting [1] was determined as 6.08 µM.

For the compound `CC(C)(C)c1cc(C(=O)NN)n(Cc2ccc(Cl)cc2Cl)n1`, the AC50 under setting [1] was over 50 µM.

As to `COc1cc(/C=C2/SC(=S)N(Cc3ccccc3)C2=O)cc(Cl)c1O`, the AC50 under setting [1] is 12.1 µM.

For the compound `COc1ccc(OC)c(N/C(N)=N/c2nc(C)cc(C)n2)c1`, under setting [1], the AC50 worked out at 39.4 µM.

In the case of `COc1ccc(CC(=O)NCc2ccc(-n3cccc3)cc2)cc1OC`, the AC50 under setting [1] stood at 3.53 µM.

`COc1cccc2c1C(=O)c1c(O)c3c(c(O)c1C2=O)CC(O)(C(=O)CO)CC3OC1CC(N(C)C)C(O)C(C)O1` (stereo not drawn) gave an AC50 under setting [1] of 10.1 µM. Against the preceding compound, the AC50 is about 2.9-fold higher.

`CCN(CC)CCn1nc2c3c(cccc3c1=O)-c1ccccc1-2`: the AC50 under setting [1] stood at 1.1 µM. Against the preceding compound, the AC50 is about 9.2-fold lower.

Under setting [2], `C[C@H](CO)N1C[C@H](C)[C@@H](CN(C)Cc2ccc(Cl)c(Cl)c2)Oc2ccc(NC(=O)Nc3ccc(C(F)(F)F)cc3)cc2CC1=O` had an AC50 of 16 µM.

Under setting [1], `Cc1c(OCC(=O)NCCN2CCOCC2)ccc2c3c(c(=O)oc12)CCC3` had an AC50 of over 50 µM.

With `Cc1cc(N/N=C/c2ccccc2O)c2ccccc2n1`, under setting [1], the AC50 is 21.1 µM. That is a double-digit micromolar value.

For the compound `CCOC(=O)c1[nH]c(C)c(/C(O)=C2\C(=O)C(=O)N(CCCN3CCOCC3)C2c2cccs2)c1C` (stereo not drawn), the AC50 under setting [1] was found to be 19.4 µM.

Compound `N#C/C(=C\c1ccccn1)c1nc2ccccc2s1` had an AC50 under setting [1] of 24.2 µM.

For the compound `COc1cccc(N2CCN(C(=O)c3ccc(CS(=O)c4ccc(C)cc4)o3)CC2)c1` (stereo not drawn), the AC50 under setting [1] was 0.539 µM. Against the preceding compound, the AC50 is about 45-fold lower.

`COc1cc2c(C#CCCO)c(-c3ccsc3)oc(=O)c2cc1OC` registered an AC50 under setting [1] of 5.52 µM. Against the preceding compound, the AC50 is about 10-fold higher.

`O=[N+]([O-])c1ccc(/C=C/C2=NN(c3ccccc3)C(c3ccco3)C2)o1` (stereo not drawn) showed an AC50 under setting [1] of 18.1 µM.

`O=C(Cc1ccc(Br)cc1)NCc1ccccc1` gave an AC50 under setting [1] of 4.85 µM.

`NS(=O)(=O)c1ccc(CNc2ccc3ccccc3n2)cc1`: the AC50 under setting [1] is over 50 µM.

Under setting [1], `CCOc1ccc(C)cc1S(=O)(=O)n1cnc2ccccc21` had an AC50 of 8.08 µM.

On to `Cc1ccc(/C=N/NC(=O)C2COc3ccccc3O2)s1` (stereo not drawn), for which, under setting [1], the AC50 was 7.28 µM.

Compound `CS(=O)(=O)N1CC(=O)N2[C@H](C1)[C@H](c1ccc(C#Cc3ccc(F)cc3)cc1)[C@@H]2CO` had an AC50 under setting [2] of 23.9 µM.

Consider `COc1cccc(S(=O)(=O)N(C)C[C@@H]2Oc3cc(C4=CCCC4)ccc3S(=O)(=O)N([C@H](C)CO)C[C@H]2C)c1`, for which the AC50 under setting [2] was found to be 16 µM.

Consider `CN1/C(=C\C=C2/SC(=S)NC2=O)C(C)(C)c2ccccc21`, for which the AC50 under setting [1] is 18.5 µM.

Regarding `Oc1ccc2ccccc2c1/C=C/c1ccc2c(Br)cc(Br)c(O)c2n1`, the AC50 under setting [1] is 21.5 µM.

With `COc1ccc(S(=O)(=O)N2CC[C@@H]3[C@@H](CO)Nc4ccc(-c5cccc(C#N)c5)cc4[C@@H]32)cc1`, the AC50 under setting [2] amounted to 16 µM.

Consider `CCOC(=O)[C@]12CCCC=C1N(Cc1cccc3ccccc13)C(=O)[C@H](CC(=O)NCc1cccc(C(F)(F)F)c1)C2`, for which the AC50 under setting [1] came out at 30 µM. This lies in the double-digit micromolar range.

`NC(=O)N=Nc1c2[nH]c3ccccc3nc-2c2ccccc12` yielded an AC50 under setting [1] of 8.41 µM.

As for `Cn1cc(C(=O)OCC2CCN(CCNS(C)(=O)=O)CC2)c2ccccc21`, the AC50 under setting [1] is over 50 µM.

With `COc1ccc(C)cc1Nc1c2c(nc3ccccc13)CCC2`, the AC50 under setting [1] was 0.708 µM.

In turn, `CCOC(=O)c1ccc(N2CCOCC2)c(NC(=O)c2c(-c3ccccc3)noc2C)c1` displayed a concentration at half-maximal activity (AC50) under setting [1] of 4.89 µM.

In turn, `CC[n+]1c(-c2ccccc2)c2cc(N)ccc2c2ccc(N)cc21` came in with an AC50 under setting [1] of 7.74 µM.

Under setting [1], `CCN(CC)CCCNc1nc2ccccc2c2nc(-c3ccncc3)nn12` returned an AC50 of 6.34 µM.

On to `Cc1ccc2c(c1)CCCN2C(=O)CCc1nc2ccccc2c(=O)[nH]1`, for which the AC50 under setting [1] is 5.42 µM.

`Cc1cc(C)c(/C=C2\C(=O)Nc3ccccc32)[nH]1` displayed an AC50 under setting [1] of 10.8 µM.

`COc1cc(Nc2c3c(nc4ccccc24)CCC3)cc(OC)c1OC` had an AC50 under setting [1] of 1.97 µM.

As to `COC(=O)Cn1c(=NC(=O)c2cc(-c3cccs3)nc3ccccc23)sc2cc(S(N)(=O)=O)ccc21`, the AC50 under setting [1] was over 50 µM.

As to `CCOP(=O)(C#Cc1ccccc1)C(O)c1ccc(Br)cc1` (stereo not drawn), under setting [1], the AC50 is over 50 µM.

For the compound `O=C(NCCCN1CCOCC1)c1cc(S(=O)(=O)N2CCOCC2)c(Cl)cc1Cl`, under setting [1], the AC50 is over 50 µM.

Take `COc1ccc(C2=NOC(C(=O)NCc3ccc(F)cc3)C2)cc1OC` (stereo not drawn): under setting [1], the AC50 is 1.06 µM.

Consider `CC(=O)N1CCc2c(sc(NC(=O)c3ccc4c(c3)OCCO4)c2C#N)C1`, for which the AC50 under setting [1] was determined as 7.74 µM.

`COc1cccc(/C=N/NC(=O)C(=O)N/N=C/c2cccc(OC)c2O)c1O` registered an AC50 under setting [1] of 40.1 µM.

As to `Clc1ccc(Nc2ccc3ccccc3n2)cc1`, the AC50 under setting [1] worked out at 8.45 µM.

Under setting [1], `CCOC(=O)c1ccc(-c2c(-c3cc(OC)c(OC)c(OC)c3)noc2C)cc1F` showed an AC50 of 1.2 µM.

Under setting [1], `O=c1ccc2[n+]([O-])c3ccc(O)cc3oc-2c1` returned an AC50 of 26.3 µM.

Under setting [1], `COc1ccc(CCNc2c3ccccc3nc3ccccc23)cc1OC` registered an AC50 of 3.9 µM.

With `Cc1cc2oc(C(=O)NCCc3ccc(S(N)(=O)=O)cc3)c(C)c2cc1C`, the AC50 under setting [1] is 0.901 µM.

The compound `COC(=O)/C=C/c1ccccc1S(=O)(=O)N(Cc1ccccc1)Cc1ccco1` returned an AC50 under setting [1] of 3.04 µM.

`N=C1/C(=C/c2cccn2CCOc2ccccc2)C(=O)N=C2SC=C(c3ccccc3)N12` registered a half-maximal activity concentration (AC50) under setting [1] of 10.8 µM.
